Experiments:
[1] = test system: normal NK cells expanded with K562-aAPC; experiment: percent inhibition of viability; higher = more inhibition; settings: 72 h, IL-2 2.5 ng/mL
Experimental: (§1)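 Drug sensitivity and resistance testing on K562-aAPC-expanded normal NK cells: 5 concentrations (10-fold steps over a 10,000-fold range), 72 h at 37 °C, viability by CellTiter-Glo normalised to DMSO and benzethonium chloride controls; DSS from the fitted curve.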

DERL-7 (IL-2 2.5 ng/mL) [2] = experiment: as above; settings: 72 h
IMC-1 (IL-2 20 ng/mL) [3] = experiment: as above; settings: 72 h
KAI3 (IL-2 2.5 ng/mL) [4] = experiment: as above; settings: 72 h
KHYG-1 (IL-2 2.5 ng/mL) [5] = experiment: as above; settings: 72 h
NK-92 (IL-2 2.5 ng/mL) [6] = experiment: as above; settings: 72 h
NK-YS (IL-2 2.5 ng/mL) [7] = experiment: as above; settings: 72 h
NKL (IL-2 2.5 ng/mL) [8] = experiment: as above; settings: 72 h
SNK-6 (IL-2 2.5 ng/mL) [9] = experiment: as above; settings: 72 h
YT (IL-2 2.5 ng/mL) [10] = experiment: as above; settings: 72 h
[11] = test system: normal primary NK cells, pool 1 (3 donors) (IL-2 2.5 ng/mL); experiment: as above; settings: 72 h
[12] = test system: normal primary NK cells, pool 1 (3 donors), resting (IL-2 0 ng/mL); experiment: as above; settings: 72 h
[13] = test system: normal primary NK cells, pool 2 (3 donors) (IL-2 2.5 ng/mL); experiment: as above; settings: 72 h
[14] = test system: normal primary NK cells, pool 3 (3 donors) (IL-2 2.5 ng/mL); experiment: as above; settings: 72 h
[15] = test system: normal NK cells expanded with K562-aAPC; experiment: drug sensitivity score (DSS) (DSS units); higher = more sensitive; extreme values may be limits of the assay; settings: 72 h; IL-2 2.5 ng/mL
Experimental: as §1

DERL-7 (IL-2 2.5 ng/mL) [16] = experiment: as above; settings: 72 h
IMC-1 (IL-2 20 ng/mL) [17] = experiment: as above; settings: 72 h
KAI3 (IL-2 2.5 ng/mL) [18] = experiment: as above; settings: 72 h
KHYG-1 (IL-2 2.5 ng/mL) [19] = experiment: as above; settings: 72 h
NK-92 (IL-2 2.5 ng/mL) [20] = experiment: as above; settings: 72 h
NK-YS (IL-2 2.5 ng/mL) [21] = experiment: as above; settings: 72 h
NKL (IL-2 2.5 ng/mL) [22] = experiment: as above; settings: 72 h
SNK-6 (IL-2 2.5 ng/mL) [23] = experiment: as above; settings: 72 h
YT (IL-2 2.5 ng/mL) [24] = experiment: as above; settings: 72 h
[25] = test system: normal primary NK cells, pool 1 (3 donors) (IL-2 2.5 ng/mL); experiment: as above; settings: 72 h
[26] = test system: normal primary NK cells, pool 1 (3 donors), resting (IL-2 0 ng/mL); experiment: as above; settings: 72 h
[27] = test system: normal primary NK cells, pool 2 (3 donors) (IL-2 2.5 ng/mL); experiment: as above; settings: 72 h
[28] = test system: normal primary NK cells, pool 3 (3 donors) (IL-2 2.5 ng/mL); experiment: as above; settings: 72 h

O=C(/C=C\n1cnc(-c2cc(C(F)(F)F)cc(C(F)(F)F)c2)n1)NNc1cnccn1 [Selinexor] (max concentration tested 10000 nM)
percent inhibition of viability [%]
Settings	1 nM	10 nM	100 nM	1000 nM	10000 nM
DERL-7 (IL-2 2.5 ng/mL) [2]	-2.69	16.9	59.3	89.7	99.2
IMC-1 (IL-2 20 ng/mL) [3]	-4.46	1.62	-10.9	86.9	100
KAI3 (IL-2 2.5 ng/mL) [4]	-3.28	4.63	52.6	93.7	106
KHYG-1 (IL-2 2.5 ng/mL) [5]	0.08	3.04	35.7	93.3	102
NK-92 (IL-2 2.5 ng/mL) [6]	-2.59	-2.77	33.9	90.6	101
NK-YS (IL-2 2.5 ng/mL) [7]	-3.45	3.74	39	77.4	95.4
NKL (IL-2 2.5 ng/mL) [8]	-4.23	11	42.8	76.3	87.8
SNK-6 (IL-2 2.5 ng/mL) [9]	-0.01	17.6	63.9	81.6	93.4
YT (IL-2 2.5 ng/mL) [10]	3.93	13.2	61.2	91.8	104
[1]	4.95	27.1	55.3	96.5	101
[11]	3.58	9.52	57.5	87.9	98.6
[12]	-3.27	25.6	77.9	87.5	93.1
[13]	-5.72	14.1	65.8	89.2	97.1
[14]	-6.17	1.79	59.1	88.1	99.8

Settings	drug sensitivity score
DERL-7 (IL-2 2.5 ng/mL) [16]	25
IMC-1 (IL-2 20 ng/mL) [17]	15.5
KAI3 (IL-2 2.5 ng/mL) [18]	23.9
KHYG-1 (IL-2 2.5 ng/mL) [19]	21.3
NK-92 (IL-2 2.5 ng/mL) [20]	20.8
NK-YS (IL-2 2.5 ng/mL) [21]	19.4
NKL (IL-2 2.5 ng/mL) [22]	19.9
SNK-6 (IL-2 2.5 ng/mL) [23]	25.1
YT (IL-2 2.5 ng/mL) [24]	25.4
[15]	25.9
[25]	24.1
[26]	29
[27]	26
[28]	24.6

— the supplement of paper PMC5908809
